In publication PMC9313812, “The Pseudo‐Natural Product Rhonin Targets RHOGDI” (Angewandte Chemie (International Ed. in English), 2022):
Values after ≈ are worked out from the molar mass of the structure shown.

Key:
[1] = system: Ptch1 and Gli1 expression in C3H/10T1/2 cells; assay: RT-qPCR of Hh target genes; format: cell-based, mouse; settings: 1.5 μM purmorphamine, 96 h
Protocol: three times with PBS and mounted on glass slides using Aqua Polymount (Polysciences Inc).
Images were acquired as Z-sections with Leica SP5 confocal microscope using a 63x 1.40 NA
Oil objective (Leica Microsystems CMS GmbH, Mannheim, Germany). Image analysis was
performed using the software ImageJ. Briefly, Z-stacks were converted to intensity sum
projections, after previous background subtraction. For quantification, cilia were identified and
marked based on the acetylated-tubulin staining intensities and the intensities of the anti-
Smoothened antibody were measured within these areas. Results were visualized and
significances were assessed using an unpaired t-test (confidence interval of 95%) with the
software GraphPad Prism 7, GraphPad software, USA). Three independent biological
replicates were performed and for each replicate at least 100 cilia per condition were analyzed.
Reverse transcription- quantitative PCR (RT-qPCR)
C3H10T1/2 cells were seeded (1×10^5 per well) in 6-well plates. 48 h later cells were treated […]
DNase I digestion step. The concentration of purified RNA was determined by means of the […]
QuantiTect Reverse Transcription Kit (Qiagen) according to the manufacturer’s protocol. […]
determined by means of quantitative RT-PCR using the QuantiFast SYBR Green PCR Kit […]
genes. The expression levels of Ptch1 and Gli1 were determined using the 2−ΔΔCt method.[6] […]

[2] = Kinetic solubility determination; format: physicochemical; settings: for solubility kinetic: aqueous buffer, pH 7.4, aqueous buffer, kinetic from dmso stock, Table S9
Protocol: (§1) (1 picture or pasted object on this page, not shown here)
Each sample was tested in triplicate.

RHOGDI1-RAC1 interaction = biological target: T1, RHOGDI1-RAC1 interaction (Homo sapiens, UniProt P52565); assay: Surface plasmon resonance: RHOGDI1-mediated displacement of GerGer-RAC1-GDP from immobilized liposomes; format: biochemical; settings: for Effect on kinetics of geranylgeranylated RAC1 extraction by RHOGDI1 (in words): SPR
T1 construct: GST; made in house; host or cells: RHOGDI1: E. coli; GerGer-RAC1: insect cells (TNAO38)
T1 sequence (P52565 1-204): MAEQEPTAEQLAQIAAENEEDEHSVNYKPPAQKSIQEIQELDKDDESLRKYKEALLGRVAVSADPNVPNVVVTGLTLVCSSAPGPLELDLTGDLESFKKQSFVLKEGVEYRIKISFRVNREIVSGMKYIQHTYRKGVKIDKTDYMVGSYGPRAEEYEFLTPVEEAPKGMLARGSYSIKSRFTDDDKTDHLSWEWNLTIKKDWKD
Protocol: RHOGDI1 displaced liposome -bound RAC1 from the surface of L1 chip with a koff of 0.016 […]
bound RAC1. Calculated rate constants by mono-exponential fitting of RU decays were 0.02 and 0.032 s-1 for RHOGDI1-mediated RAC1 displacement from the liposomes in the presence of 7a and 7d, respectively. (d) Competition-based fluorescence polarization experiments were performed by titration of 7a against 10 nM fluorescein-labelled atorvastatin and GST-PDEδ.
(e) Fluorescence polarization experiment using 10 nM probe 10 and titration of PDEδ.
as §1
Surface plasmon resonance (SPR)
Biacore® X100 instrument (Biacore, now GE Healthcare) was used to analyze the effect of 7a on the GerGer-RAC1-GDP and RHOGDI1 interaction. Liposomes suspended in SPR buffer (20 mM HEPES, pH 7.4, 50 mM NaCl, 5 mM MgCl2, 3 mM DTT) were immobilized by injecting 0.5 mM liposomes with flowrate of 5 µL/min on the surface of a Pioneer® L1 sensor chip (GE Healthcare) for the period of 900 s, as indicated by a constant signal. Unbound liposomes were removed by passing the buffer and 10 mM NaOH with flowrate of 5 µL/min for 30 s over the sensor chip. Buffer containing 15 µM GerGer-RAC1-GDP was passed with flowrate of 5 µL/min over the immobilized liposomes to facilitate the loading of GerGer-RAC1-GDP on to the liposomes. The effect of compounds on the association of GerGer-RAC1-GDP with liposomes and the resulting dissociation of GerGer-RAC1 upon passing 25 µM of RHOGDI1 was monitored by the change in the response unit signal.
Protein expression and purification
RHOGDI1 delta15, RHOGDI1 delta25, RHOGDI1-3 were produced in E. coli (XL1-Blue) as a GST recombinant protein as described previously.[9] In summary, protein were expressed in E.coli BL21 upon addition of IPTG overnight. Cell were collected and lysed in a lysis buffer, containing 30 mM Tris-NaOH pH 7.4, 150 mM NaCl, 1 mM DTT, and 5 mM MgCl2. Cells were further lysed using sonication. […]

| Compound | Expression of the Hh target genes Ptch1 and Gli1 (in words) [1] | solubility kinetic [2] [µM] | Rate constant of RHOGDI1-mediated RAC1 displacement from liposomes in presence of compound (RHOGDI1-RAC1 interaction; 25 µM RHOGDI1, mono-exponential fitting of RU decays) [s⁻¹] | Effect on kinetics of geranylgeranylated RAC1 extraction by RHOGDI1 (in words) (RHOGDI1-RAC1 interaction) | Expression of the Hh target genes Ptch1 and Gli1 (remaining) ([1]; 5 μM, purmorphamine-treated cells = 100 %) | Solubility (in words) [2] |
| --- | --- | --- | --- | --- | --- | --- |
| COC(=O)C1(C(CC(=O)c2cccnc2)c2ccccc2)N=C(c2ccc(Br)cc2)C2C(=O)N(C)C(=O)C21 (centres unmarked) [7l] | only slightly reduced | 47.3 (≈ 27.2 µg/mL) | – | – | – | – |
| COC(=O)C1(CCC(=O)c2ccc(F)cc2)N=C(c2ccc(Br)cc2)C2C(=O)N(C)C(=O)C21 (centres unmarked) [7d] | – | – | 0.032 | did not | – | – |
| COC(=O)C1(C(CC(=O)c2ccccc2)c2ccccc2)N=C(c2ccc(Br)cc2)C2C(=O)N(C)C(=O)C21 (centres unmarked) [7a] | – | 5.7 (≈ 3.27 µg/mL) | – | slowed down the kinetics | approx. 50% | limited solubility |
